Source: patent publication US7258981B2, “Sensitive proteasome sensor constructs and methods for their design and use” (Clontech Laboratories, Inc., priority 2003, dated 2007)
Like-named read-outs stand apart in the source and are kept apart here. Square brackets hold non-standard residues; d marks the D form. Peptide text beside a SMILES is read from it. * marks the point of attachment. Nle = CCCC[C@H](N)C(=O)O; Cbz = O=C(OCc1ccccc1)*

Legend:
proteasome [1] = experiment: Inventive proteasome sensor sensitivity (detection of proteasome inhibitors); type: cell-based; settings: six hour after treatment as benchmark; broadest stated range
Source text: In determining sensitivity of his system, in the present application six hour after treating a cell with a proteasome modifying treatment is employed as a benchmark for sensitivity.

proteasome [2] = experiment: HEK 293 cells transiently transfected with ZsGreen constructs, MFI by flow cytometry; type: cell-based; settings: HEK 293, transient transfection
Procedure: (FIGS. 2A&B) To establish if the above proteins are substrate for degradation by the proteasome, HEK 293 cells were transiently transfected with the plasmids and the mean fluorescence intensity (MFI) of the cells was measured by flow cytometry 16 hours after transfection. […] To distinguish between these two possibilities, the transiently transfected cells were treated with ALLN, a well-characterized reversible inhibitor of proteasomal degradation.

proteasome [3] = experiment: Stable HEK 293 clone expressing ZsGreend410, fluorescence with or without ALLN; type: cell-based
proteasome [4] = settings: GFP-CL1 fusion; flow cytometry; cited from earlier work
proteasome [5] = settings: GFP-MODC fragment fusion; at 20 hours; flow cytometry; cited from earlier work
proteasome [6] = settings: GFP-Ubiquitin fusion; at 15 hours; flow cytometry (FACS); cited from earlier work

**Q.** For `CCCC[C@@H](C=O)NC(=O)[C@H](CC(C)C)NC(=O)[C@H](CC(C)C)NC(C)=O` [ALLN] (Ac-Leu-Leu-[Nle]-aldehyde), which “detection level of inhibitor by the inventive sensor” value (from here on “detection level of inhibitor”) (proteasome [1]) is on record?
**A.** Its value is 50 to 2500 nM.

**Q.** What about the “effect of treatment on fluorescence of ZsGreen expressing cells” value (proteasome [2]) of the same compound?
**A.** The value was “only marginally increases”.

**Q.** What about the “effect of treatment on fluorescence of pZsGreendl and pZsGreend410-transfected cells” value (proteasome [2]) of the same compound?
**A.** The value was “increased in a time-dependent fashion”.

**Q.** What about the “delay before the appearance of fluorescence” value (proteasome [3]; ZsGreend410-expressing clone, stable transfection) of the same compound?
**A.** Its value is 3 h.

**Q.** And the “effect of treatment on fluorescence of cells stably expressing ZsGreend410” value (proteasome [3]; stable HEK 293 clone)?
**A.** Its value is “sharply increases”.

**Q.** Which “detection level of inhibitor” value (proteasome [1]) does the source give for `CC[C@H](C)[C@H](NC(=O)[C@H]([C@@H](C)CC)N(C)C(C)=O)C(=O)N[C@H](C(=O)N[C@@H](CC(C)C)C(=O)[C@@]1(C)CO1)[C@@H](C)O` [Epoxomycin] here?
**A.** Its value is 1 to 30 nM.

**Q.** For `CC(=O)N[C@@H](CSC(=O)[C@]1([C@@H](O)C(C)C)NC(=O)[C@H](C)[C@@H]1O)C(=O)O` [Lactacystin], which “detection level of inhibitor” value (proteasome [1]) is on record?
**A.** The value was 10 to 500 nM.

**Q.** What about the “sensitivity achieved (inhibitor concentration)” value (proteasome [4]) of the same compound?
**A.** The value was 845 nM.

**Q.** What about the “sensitivity achieved (inhibitor concentration)” value (proteasome [5]) of the same compound?
**A.** Its value is 2.5 µM.

**Q.** For `CC(C)C[C@@H](C=O)NC(=O)[C@H](CC(C)C)NC(=O)[C@H](CC(C)C)NC(=O)OCc1ccccc1` [MG132] (Cbz-Leu-Leu-Leu-aldehyde), which “sensitivity achieved (inhibitor concentration)” value (proteasome [5]) is on record?
**A.** The value was 2.5 µM.

**Q.** For `CC(C)C[C@@H](/C=C/S(C)(=O)=O)NC(=O)[C@H](CC(C)C)NC(=O)[C@H](CC(C)C)NC(=O)OCc1ccccc1` [Z-L3-VS], which “sensitivity achieved (inhibitor concentration)” value (proteasome [6]) is on record?
**A.** Its value is 4 µM.
